Target: T1, Cytochrome P450 1A2 (Homo sapiens, UniProt P05177)
T1 sequence (P05177 whole entry): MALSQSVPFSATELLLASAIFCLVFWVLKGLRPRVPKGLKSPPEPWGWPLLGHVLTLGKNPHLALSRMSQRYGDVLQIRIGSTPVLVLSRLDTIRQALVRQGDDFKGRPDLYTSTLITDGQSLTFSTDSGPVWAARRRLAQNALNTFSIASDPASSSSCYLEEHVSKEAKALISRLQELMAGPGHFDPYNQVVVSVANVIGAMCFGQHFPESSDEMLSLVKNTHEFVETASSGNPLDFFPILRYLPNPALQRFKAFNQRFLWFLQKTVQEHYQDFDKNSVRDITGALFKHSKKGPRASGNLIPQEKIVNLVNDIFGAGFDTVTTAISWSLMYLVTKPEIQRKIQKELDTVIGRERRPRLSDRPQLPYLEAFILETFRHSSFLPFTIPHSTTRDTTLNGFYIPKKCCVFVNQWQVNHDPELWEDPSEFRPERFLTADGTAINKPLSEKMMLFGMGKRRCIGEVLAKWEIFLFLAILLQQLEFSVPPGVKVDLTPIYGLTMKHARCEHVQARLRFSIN
Experiment: CYP1A2 Inhibition Assay
Protocol: The quenched samples were incubated at 4° C. for 10 min and centrifuged at 4° C. for 10 min.

IC50: 2920 nM
Structure (SMILES): CC(C)(C)CN1c2cccc(O)c2C(=O)CC1c1cccc(O)c1 (stereo unspecified) [US11938127, Compound KCI838]

— BindingDB's records for patent US11938127 (Wayne State University, 2024)
